Data on 24 compounds can be found in US7109216B2 (priority 2001, dated 2006).

Like-named read-outs stand apart in the source and are kept apart here.

Data set [1] addresses T1, human cannabinoid CB1 receptor (Homo sapiens, UniProt P21554). Briefly: Cannabinoid CB1 antagonistic activity, forskolin-induced cAMP accumulation in CHO cells. It is filed as cell-based. Also on record: expressed in transfected cells; host or cells: CHO cells. The method, then: The cannabinoid CB1 antagonistic activity of compounds of the invention was determined by functional studies using CHO cells in which human cannabinoid CB1 receptors were stably expressed. Adenylyl cyclase was stimulated using forskolin and measured by quantifying the amount of accumulated cyclic AMP. Concomitant activation of CB1 receptors by CB1 receptor agonists (e.g. CP-55,940 or (R)-WIN-55,212–2) can attenuate the forskolin-induced accumulation of cAMP in a concentration-dependent manner. This CB1 receptor-mediated response can be antagonized by CB1 receptor antagonists such as the compounds of the invention.
On the technique in general: Cyclic AMP is a second messenger, typically raised through Gs and lowered through Gi signalling.

Data set [2] has as its target T1, human cannabinoid CB1 receptor. Description: biochemical. It is filed as binding. Also on record: expressed in transfected cells; host or cells: Chinese hamster ovary (CHO) cells, membrane preparation. The following applies: [3H]CP-55,940 radioligand, CHO cell membranes stably transfected with human CB1. The method, then:
After incubation of a freshly prepared cell membrane preparation with the [^3H]-ligand, with or without addition of compounds of the invention, separation of bound and free ligand was performed by filtration over glassfiber filters. Radioactivity on the filter was measured by liquid scintillation counting.

[3] abbreviates: antagonism of CB1 agonist (e.g. CP-55,940 or (R)-WIN-55,212-2) effect on forskolin-induced cAMP accumulation, CHO cells expressing human CB1, read-out: hCB1 pA2 (converted).
Where [4] appears, read: antagonism of CB1 agonist (e.g. CP-55,940 or (R)-WIN-55,212-2) effect on forskolin-induced cAMP accumulation, CHO cells expressing human CB1.

T1 sequence (P21554 whole entry): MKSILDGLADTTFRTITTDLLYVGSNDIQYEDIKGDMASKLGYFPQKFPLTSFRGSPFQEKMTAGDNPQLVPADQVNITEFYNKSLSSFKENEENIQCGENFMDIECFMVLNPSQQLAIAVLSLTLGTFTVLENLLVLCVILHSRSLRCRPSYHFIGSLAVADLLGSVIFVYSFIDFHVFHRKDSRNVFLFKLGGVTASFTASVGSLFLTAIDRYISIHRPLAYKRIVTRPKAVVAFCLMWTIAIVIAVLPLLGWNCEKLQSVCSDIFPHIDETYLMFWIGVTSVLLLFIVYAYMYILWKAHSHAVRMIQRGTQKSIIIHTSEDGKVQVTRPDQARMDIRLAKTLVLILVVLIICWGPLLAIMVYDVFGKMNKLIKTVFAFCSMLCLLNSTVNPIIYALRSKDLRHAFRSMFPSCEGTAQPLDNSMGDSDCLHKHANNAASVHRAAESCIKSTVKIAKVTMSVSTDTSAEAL

For `Cc1c(C(=O)NN2CCCCC2)nc(-c2ccc(Cl)cc2Cl)n1-c1ccc(Br)cc1` [Example 17, 1-(4-Bromophenyl)-2-(2,4-dichlorophenyl)-5-methyl-N-(piperidin-1-yl)-1H-imidazole-4-carboxamide], the melting point was more than 204 °C. Besides, the Kb in data set [1] (setting [3]) was 1.58 nM. In data set [2] (hCB1 pKi), the Ki was 50.1 nM.
The corresponding values for `CCc1c(C(=O)NN2CCCCC2)nc(-c2ccc(Cl)cc2Cl)n1-c1ccc(Br)cc1` [Example 19, 1-(4-Bromophenyl)-2-(2,4-dichlorophenyl)-5-ethyl-N-(piperidin-1-yl)-1H-imidazole-4-carboxamide] are more than 140 °C, 1.26 nM and 31.6 nM.
The corresponding values for `CCc1c(C(=O)NC2CCCCC2)nc(-c2ccc(Cl)cc2Cl)n1-c1ccc(Br)cc1` [Example 20, 1-(4-Bromophenyl)-N-cyclohexyl-2-(2,4-dichlorophenyl)-5-ethyl-1H-imidazole-4-carboxamide] are more than 135 °C, less than 1 nM and 100 nM.
The compound `CC(C)(C)ONC(=O)c1cn(-c2ccc(Br)cc2)c(-c2ccc(Cl)cc2Cl)n1` [Example 23, N-(t-Butoxy)-1-(4-bromophenyl)-2-(2,4-dichlorophenyl)-1H-imidazole-4-carboxamide] showed a Kb in data set [1] of 1 nM. For the same compound, the Ki in data set [2] (read-out: hCB1 pKi (converted)) is 398 nM.
Consider `O=C(NN1CCCCCC1)c1cn(-c2ccc(Br)cc2)c(-c2ccc(Cl)cc2Cl)n1` [Example 25, N-(Azepan-1-yl)-1-(4-bromophenyl)-2-(2,4-dichlorophenyl)-1H-imidazole-4-carboxamide], for which the melting point fell in the range of 201 to 204 °C. In addition, the Kb in data set [1] is 10 nM. Further, in data set [2] (read-out: hCB1 pKi (converted)), the Ki is 126 nM.
As for `O=C(NN1CC2CCCC2C1)c1cn(-c2ccc(Cl)cc2)c(-c2ccc(Cl)cc2Cl)n1` (centres unmarked) [Example 26, 1-(4-Chlorophenyl)-2-(2,4-dichlorophenyl)-N-(hexahydrocyclopenta[c]pyrrol-2(1H)-yl)-1H-imidazole-4-carboxamide], the Kb in data set [1] (setting [3]) is 10 nM. This compound gave a Ki in data set [2] (hCB1 pKi) of 501 nM.
The corresponding values for `O=C(NCc1ccc(F)cc1)c1cn(-c2ccc(Cl)cc2)c(-c2ccc(Cl)cc2Cl)n1` [Example 27, 1-(4-Chlorophenyl)-2-(2,4-dichlorophenyl)-N-(4-fluorobenzyl)-1H-imidazole-4-carboxamide] are 3.98 nM and 63.1 nM.
In the case of `COc1cc(Cl)ccc1-c1nc(C(=O)NC2CCCCC2)cn1-c1ccc(Cl)cc1` [Example 29, 1-(4-Chlorophenyl)-N-cyclohexyl-2-(2-methoxy-4-chlorophenyl)-1H-imidazole-4-carboxamide], the melting point was 177 to 179 °C. The compound also showed a Kb in data set [1] of 100 nM. Also, the Ki in data set [2] (read-out: hCB1 pKi (converted)) is 398 nM.
As to `COc1ccc(-n2cc(C(=O)NC3CCCCC3)nc2-c2ccc(Cl)cc2Cl)cc1` [Example 36, N-Cyclohexyl-2-(2,4-dichlorophenyl)-1-(4-methoxyphenyl)-1H-imidazole-4-carboxamide], the melting point was 175 to 176 °C. Also, the Kb in data set [1] (setting [3]) was 6.31 nM. This compound showed a Ki in data set [2] (hCB1 pKi) of 158 nM.
Compound `O=C(NC1CCCCC1)c1cn(-c2ccc(Cl)cc2)c(-c2ccc(Cl)cc2C(F)(F)F)n1` [Example 38, 1-(4-Chlorophenyl)-N-cyclohexyl-2-(2-trifluoromethyl-4-chlorophenyl)-1H-imidazole-4-carboxamide] yielded a melting point of 172 °C. In addition, the Kb in data set [1] was 20 nM. The Ki in data set [2] (read-out: hCB1 pKi (converted)) is 200 nM.
The corresponding values for `O=C(NN1CCCCC1)c1cn(-c2ccc(Cl)cc2)c(-c2ccc(Cl)cc2C(F)(F)F)n1` [Example 39, 1-(4-Chlorophenyl)-N-(piperidin-1-yl)-2-(2-trifluoromethyl-4-chlorophenyl)-1H-imidazole-4-carboxamide] are 219 °C, 50.1 nM and 316 nM.
Take `Cc1c(C(=O)NN2CCCCC2)nc(-c2ccc(Cl)cc2Cl)n1-c1ccc(C(F)(F)F)cc1` [Example 45, 2-(2,4-dichlorophenyl)-5-methyl-N-(piperidin-1-yl)-1-(4-(trifluoromethyl)phenyl)-1H-imidazole-4-carboxamide]: the Kb in data set [1] (setting [3]) is 1.58 nM. Besides, in data set [2] (hCB1 pKi), the Ki is 15.8 nM.
In the case of `O=C(NN1CCCCC1)c1cn(-c2ccc(C(F)(F)F)cc2)c(-c2ccc(Cl)cc2Cl)n1` [Example 46, 2-(2,4-dichlorophenyl)-N-(piperidin-1-yl)-1-(4-(trifluoromethyl)phenyl)-1H-imidazole-4-carboxamide], the melting point is > 200 °C (dec.). Moreover, in data set [1] (setting [3]), the Kb was 6.31 nM. The compound also showed a Ki in data set [2] (hCB1 pKi) of 50.1 nM.
Turning to `O=C(NC1CCCCC1)c1cn(-c2ccc(C(F)(F)F)cc2)c(-c2ccc(Cl)cc2Cl)n1` [Example 48, N-Cyclohexyl-2-(2,4-dichlorophenyl)-1-(4-(trifluoromethyl)phenyl)-1H-imidazole-4-carboxamide], the melting point was in the range of 199 to 200 °C. Moreover, the Kb in data set [1] is 0.251 nM. In addition, in data set [2] (read-out: hCB1 pKi (converted)), the Ki was 316 nM.
The compound `Cc1c(C(=O)NN2CCOCC2)nc(-c2ccc(Cl)cc2Cl)n1-c1ccc(Cl)cn1` [Example 52, 1-(5-Chloropyridin-2-yl)-2-(2,4-dichlorophenyl)-5-methyl-N-(4-morpholinyl)-1H-imidazole-4-carboxamide] had a Kb in data set [1] of 2.51 nM. The Ki in data set [2] (read-out: hCB1 pKi (converted)) is 501 nM.
Regarding `Cc1c(C(=O)NN2CCCCC2)nc(-c2ccc(Cl)cc2Cl)n1-c1ccc(F)cc1` [Example 62, 2-(2,4-Dichlorophenyl)-1-(4-fluorophenyl)-5-methyl-N-(piperidin-1-yl)-1H-imidazole-4-carboxamide], the melting point lay within 223 to 224 °C. Also, the “hCB1 pA2” value in data set [1] (setting [4]) stood at 7.7. Moreover, the Ki in data set [2] (hCB1 pKi) was 31.6 nM.
`COc1ccc(-n2c(-c3ccc(Cl)cc3Cl)nc(C(=O)NN3CCCCC3)c2C)cc1` [Example 63, 2-(2,4-Dichlorophenyl)-5-methyl-1-(4-methoxyphenyl)-N-(piperidin-1-yl)-1H-imidazole-4-carboxamide]: the melting point is > 90 °C (dec.). Besides, the Kb in data set [1] (setting [3]) was 1 nM. The Ki in data set [2] (hCB1 pKi) is 79.4 nM.
As to `Cc1c(C(=O)NN2CC3CCCC3C2)nc(-c2ccc(Cl)cc2Cl)n1-c1ccc(Cl)cc1` (centres unmarked) [Example 81, 1-(4-Chlorophenyl)-2-(2,4-dichlorophenyl)-N-(hexahydrocyclopenta-[c]pyrrol-2(1H)-yl)-5-methyl-1H-imidazole-4-carboxamide], the melting point lay within 143 to 146 °C. The “hCB1 pA2” value in data set [1] (setting [4]) amounted to 9.8. For the same compound, the Ki in data set [2] (hCB1 pKi) is 31.6 nM.
`Cc1c(C(=O)NC2CC3CCC2C3)nc(-c2ccc(Cl)cc2Cl)n1-c1ccc(Cl)cc1` (stereo not drawn) [Example 84, N-(Exo-bicyclo[2.2.1]hept-2-yl)-1-(4-chlorophenyl)-2-(2,4-dichlorophenyl)-5-methyl-1H-imidazole-4-carboxamide] came in with a melting point of 194 to 195 °C. Further, the Kb in data set [1] (setting [3]) was 1.26 nM. In data set [2] (hCB1 pKi), this compound gave a Ki of 15.8 nM.
The corresponding values for `Cc1c(C(=O)N[C@H]2CC[C@H](O)CC2)nc(-c2ccc(Cl)cc2Cl)n1-c1ccc(Cl)cc1` [Example 86, 1-(4-Chlorophenyl)-2-(2,4-dichlorophenyl)-N-(trans-4-hydroxycyclohexyl)-5-methyl-1H-imidazole-4-carboxamide] are 160 °C (dec.), 15.8 nM and 126 nM.
`Cc1c(C(=O)NN2CCCCCC2)nc(-c2ccc(Cl)cc2Cl)n1-c1ccc(Cl)cc1` [Example 92, N-(Azepan-1-yl)-1-(4-chlorophenyl)-2-(2,4-dichlorophenyl)-5-methyl-1H-imidazole-4-carboxamide] gave a melting point of 147 to 149 °C. In addition, in data set [1] (setting [3]), the Kb was 1.58 nM. The compound further showed a Ki in data set [2] (hCB1 pKi) of 63.1 nM.
As for `Cc1c(C(=O)NN2CCCC2)nc(-c2ccc(Cl)cc2Cl)n1-c1ccc(Cl)cc1` [Example 93, 1-(4-Chlorophenyl)-2-(2,4-dichlorophenyl)-5-methyl-N-(pyrrolidin-1-yl)-1H-imidazole-4-carboxamide], the melting point fell in the range of 205 to 206 °C. Besides, the “hCB1 pA2” value in data set [1] (setting [4]) is recorded as 8.2. The same compound showed a Ki in data set [2] (hCB1 pKi) of 20 nM.
With `O=C(NN1CCCCC1)c1nc(-c2ccc(Cl)cc2Cl)n(-c2ccc(Br)cc2)c1Cl` [Example 109, 1-(4-bromophenyl)-5-chloro-2-(2,4-dichloro-phenyl)-N-(piperidin-1-yl)-1H-imidazole-4-carboxamide], the Kb in data set [1] (setting [3]) is 1.58 nM. In addition, the Ki in data set [2] (hCB1 pKi) is 251 nM.
`N#Cc1c(C(=O)NN2CCCCC2)nc(-c2ccc(Cl)cc2Cl)n1-c1ccc(Cl)cc1` [Example 110, 1-(4-chlorophenyl)-5-cyano-2-(2,4-dichlorophenyl)-N-(piperidin-1-yl)-1H-imidazole-4-carboxamide]: the “hCB1 pA2” value in data set [1] (setting [4]) was found to be 8.6. Moreover, the Ki in data set [2] (hCB1 pKi) is 31.6 nM.

Broadly, the melting point is the temperature, or range, at which the solid turns liquid.
